For this assay, the system named is BDF1 mice, B16 melanoma ip, median survival T/C. Briefly: NCI In Vivo Anticancer Drug Screen. Data for tumor model B16 Melanoma (intraperitoneal) in B6D2F1 (BDF1) mice. The settings on record: endpoint: median survival time, higher = longer survival. An outline of the steps: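 Antitumor activity is assessed in mice bearing a transplanted tumor, with survival or tumor size compared against vehicle-dosed controls and expressed as T/C.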

[1] abbreviates: dose: 3.12 mg/kg/injection, schedule: Q01DX009 (ip), vehicle: Klucel (hydroxypropylcellulose) (HPC).
Where [2] appears, read: dose: 12.5 mg/kg/injection, schedule: Q01DX009 (ip), vehicle: Klucel (hydroxypropylcellulose) (HPC).
[3] abbreviates: dose: 25.0 mg/kg/injection, schedule: Q01DX009 (ip), vehicle: Klucel (hydroxypropylcellulose) (HPC).
The mark [4] stands for this setting: dose: 6.25 mg/kg/injection, schedule: Q01DX009 (ip), vehicle: saline with Tween-80.
Setting [5] is: dose: 12.5 mg/kg/injection, schedule: Q01DX009 (ip), vehicle: saline with Tween-80.
The mark [6] stands for this setting: dose: 25.0 mg/kg/injection, schedule: Q01DX009 (ip), vehicle: saline with Tween-80.
The mark [7] stands for this setting: dose: 50.0 mg/kg/injection, schedule: Q01DX009 (ip), vehicle: saline with Tween-80.
[8] abbreviates: dose: 100.0 mg/kg/injection, schedule: Q01DX009 (ip), vehicle: saline with Tween-80.
Setting [9] is: dose: 100.0 mg/kg/injection, schedule: Q04DX003 (ip), vehicle: Klucel (hydroxypropylcellulose) (HPC).
Setting [10] is: dose: 200.0 mg/kg/injection, schedule: Q04DX003 (ip), vehicle: Klucel (hydroxypropylcellulose) (HPC).
Where [11] appears, read: dose: 400.0 mg/kg/injection, schedule: Q04DX003 (ip), vehicle: Klucel (hydroxypropylcellulose) (HPC).

“And” between values parts separate entries of the source, which are not always exact repeats. Identical values can stand only once. Inconclusive results and toxic doses are left out. Peptide text beside a SMILES is read from it. * marks the point of attachment. Cbz = O=C(OCc1ccccc1)*

Take `CCC(CC)(COC(N)=O)COC(N)=O`: the T/C (dose: 0.78 mg/kg/injection, schedule: Q01DX009 (ip), vehicle: Klucel (hydroxypropylcellulose) (HPC)) is 89 % of control; the T/C (dose: 1.56 mg/kg/injection, schedule: Q01DX009 (ip), vehicle: Klucel (hydroxypropylcellulose) (HPC)) was 93 % of control; the T/C under setting [1] is 95 % of control; the T/C (dose: 6.25 mg/kg/injection, schedule: Q01DX009 (ip), vehicle: Klucel (hydroxypropylcellulose) (HPC)) is 97 % of control; the T/C under setting [2] was 86 % of control.

Consider `C=C1CC2(OC1=O)C(=O)N(C)c1ccc(I)cc12` (stereo not drawn), for which the T/C by setting is: (dose: 6.25 mg/kg/injection, schedule: Q01DX009 (ip), vehicle: saline) 100 % of control and 104 % of control; (dose: 12.5 mg/kg/injection, schedule: Q01DX009 (ip), vehicle: saline) 101 % of control and 112 % of control; (dose: 25.0 mg/kg/injection, schedule: Q01DX009 (ip), vehicle: saline) 95 % of control and 104 % of control; (dose: 50.0 mg/kg/injection, schedule: Q01DX009 (ip), vehicle: saline) 110 % of control.

`O=Nc1ccc(O)c(=O)cc1`: the T/C was 97 % of control (dose: 1.0 mg/kg/injection, schedule: Q01DX009 (ip), vehicle: saline with Tween-80) and 90 % of control (dose: 2.0 mg/kg/injection, schedule: Q01DX009 (ip), vehicle: saline with Tween-80).

In the case of `CC(C)(C)NC/C(=C\c1ccccc1)C(=O)c1ccccc1`, the T/C is, setting by setting: (dose: 6.25 mg/kg/injection, schedule: Q04DX003 (ip), vehicle: saline with Tween-80) 100 % of control; under setting [2], 96 % of control; (dose: 12.5 mg/kg/injection, schedule: Q04DX003 (ip), vehicle: saline with Tween-80) 98 % of control; under setting [3], 96 % of control; (dose: 25.0 mg/kg/injection, schedule: Q04DX003 (ip), vehicle: saline with Tween-80) 97 % of control and 102 % of control.

For the compound `O=[N+]([O-])/C=C/c1ccc([N+](=O)[O-])cc1Cl`, the T/C runs as follows: (dose: 0.18 mg/kg/injection, schedule: Q01DX009 (ip), vehicle: Klucel (hydroxypropylcellulose) (HPC)) 111 % of control; (dose: 0.37 mg/kg/injection, schedule: Q01DX009 (ip), vehicle: Klucel (hydroxypropylcellulose) (HPC)) 96 % of control; (dose: 0.75 mg/kg/injection, schedule: Q01DX009 (ip), vehicle: Klucel (hydroxypropylcellulose) (HPC)) 87 % of control and 90 % of control.

Turning to `CCOc1ccc(C(C)c2cc3c(cc2OC)OCO3)cc1` (stereo not drawn), the T/C is 114 % of control (dose: 12.5 mg/kg/injection, schedule: Q01DX009 (ip), vehicle: distilled water + Tween-80) and 113 % of control (dose: 25.0 mg/kg/injection, schedule: Q01DX009 (ip), vehicle: distilled water + Tween-80).

Consider `ClC1CC[N-]CC1.ClC1CC[N-]CC1.[Cl][Pt+2]([Cl])([Cl])[Cl]`, for which the T/C by setting is: (dose: 3.13 mg/kg/injection, schedule: Q01DX009 (ip), vehicle: saline with Tween-80) 104 % of control; under setting [4], 104 % of control; under setting [5], 117 % of control.

As for `NCc1c(Cl)c(Cl)c(CN)c(Cl)c1Cl`, the T/C was 100 % of control under setting [6], 102 % of control under setting [7] and 100 % of control under setting [8].

As for `CCC[CH2][Ge]([Cl])([Cl])[CH2]CCC`, the T/C is, setting by setting: under setting [2], 100 % of control; under setting [3], 90 % of control.

`CS(=O)(=O)OCC1CCCCO1` (stereo not drawn): the T/C runs as follows: under setting [9], 92 % of control and 100 % of control; under setting [10], 100 % of control; under setting [11], 104 % of control and 108 % of control.

As for `COc1ccc2c3c(c4cc(OC)c(OC)cc4c2c1)C[C@H]1CCCCN1C3`, the T/C runs as follows: (dose: 0.13 mg/kg/injection, schedule: Q01DX009 (ip), vehicle: saline) 114 % of control; (dose: 0.25 mg/kg/injection, schedule: Q01DX009 (ip), vehicle: saline) 109 % of control; (dose: 0.5 mg/kg/injection, schedule: Q01DX009 (ip), vehicle: saline) 104 % of control.

Consider `Cc1cccc(OCC(=O)O)c1`, for which the T/C runs as follows: under setting [4], 106 % of control; under setting [5], 93 % of control; under setting [6], 86 % of control.

As for `Cc1ccc(Cl)cc1NC(=O)Nc1ccc(Cl)c(Cl)c1`, the T/C (dose: 75.0 mg/kg/injection, schedule: Q01DX009 (ip), vehicle: Klucel (hydroxypropylcellulose) (HPC)) is 97 % of control and the T/C (dose: 150.0 mg/kg/injection, schedule: Q01DX009 (ip), vehicle: Klucel (hydroxypropylcellulose) (HPC)) is 92 % of control.

Take `NC(=O)NOCC1NC(=O)C(CONC(N)=O)NC1=O` (stereo not drawn): the T/C runs as follows: (dose: 100.0 mg/kg/injection, schedule: Q01DX009 (ip), vehicle: saline) 98 % of control; (dose: 200.0 mg/kg/injection, schedule: Q01DX009 (ip), vehicle: saline) 94 % of control; (dose: 200.0 mg/kg/injection, schedule: Q04DX003 (ip), vehicle: saline) 102 % of control; (dose: 400.0 mg/kg/injection, schedule: Q01DX009 (ip), vehicle: saline) 97 % of control; (dose: 400.0 mg/kg/injection, schedule: Q04DX003 (ip), vehicle: saline) 94 % of control.

In the case of `NC(=O)c1ccc(N)nc1`, the T/C was 100 % of control (dose: 0.09 mg/kg/injection, schedule: Q01DX009 (ip), vehicle: saline); 86 % of control and 107 % of control (dose: 0.18 mg/kg/injection, schedule: Q01DX009 (ip), vehicle: saline); 113 % of control and 114 % of control (dose: 0.37 mg/kg/injection, schedule: Q01DX009 (ip), vehicle: saline); 102 % of control (dose: 0.75 mg/kg/injection, schedule: Q01DX009 (ip), vehicle: saline); 112 % of control and 115 % of control (dose: 1.5 mg/kg/injection, schedule: Q01DX009 (ip), vehicle: saline); 100 % of control (dose: 2.0 mg/kg/injection, schedule: Q01DX009 (ip), vehicle: saline). For the same compound, the T/C (dose: 3.12 mg/kg/injection, schedule: Q04DX003 (ip), vehicle: saline) is 111 % of control and the T/C (dose: 6.25 mg/kg/injection, schedule: Q04DX003 (ip), vehicle: saline) is 107 % of control.

Turning to `Cc1ccc(NS(=O)(=O)c2ccc([N+](=O)[O-])cc2)cc1`, the T/C (dose: 25.0 mg/kg/injection, schedule: Q04DX003 (ip), vehicle: Klucel (hydroxypropylcellulose) (HPC)) is 115 % of control; the T/C (dose: 50.0 mg/kg/injection, schedule: Q04DX003 (ip), vehicle: Klucel (hydroxypropylcellulose) (HPC)) was 103 % of control; the T/C under setting [9] was 108 % of control; the T/C under setting [10] was 97 % of control; the T/C under setting [11] is 115 % of control.

Take `Cc1cc(=O)c2c(=O)[nH][nH]c2[nH]1`: the T/C runs as follows: under setting [7], 100 % of control; under setting [8], 95 % of control; (dose: 200.0 mg/kg/injection, schedule: Q01DX009 (ip), vehicle: saline with Tween-80) 88 % of control.

Regarding `O=C(NC(Cc1ccccc1)C(=O)NC(CO)C(=O)O)OCc1ccccc1` (stereo not drawn) (Cbz-Phe-Ser-OH; configuration not given here), the T/C by setting is: under setting [7], 95 % of control; under setting [8], 90 % of control.

Take `CC[C@H]1CN2CCc3cc(OC)c(OC)cc3[C@@H]2C[C@@H]1C[C@H]1NCCc2c1[nH]c1ccc(O)cc21`: the T/C by setting is: (dose: 0.25 mg/kg/injection, schedule: Q01DX009 (ip), vehicle: Klucel (hydroxypropylcellulose) (HPC)) 111 % of control; (dose: 0.5 mg/kg/injection, schedule: Q01DX009 (ip), vehicle: Klucel (hydroxypropylcellulose) (HPC)) 114 % of control; (dose: 1.0 mg/kg/injection, schedule: Q01DX009 (ip), vehicle: Klucel (hydroxypropylcellulose) (HPC)) 123 % of control.

For `C(=P(c1ccccc1)(c1ccccc1)c1ccccc1)[P+](c1ccccc1)(c1ccccc1)c1ccccc1`, the T/C was 111 % of control under setting [1] and 157 % of control (dose: 6.25 mg/kg/injection, schedule: Q01DX009 (ip), vehicle: suspension in saline).

The record behind these values is PubChem BioAssay AID192 (DTP/NCI, 2004).
